Test results from patent US8735412B2, “Sulfoximine-substituted anilinopyrimidine derivatives as CDK inhibitors, the production thereof, and use as medicine” (Bayer Intellectual Property GmbH, priority 2008, dated 2014).
Like-named read-outs stand apart in the source and are kept apart here.

Experiments:
CDK2/CycE = target: T1, CDK2/CycE (Homo sapiens, UniProt P24941); test: CDK2/CycE kinase assay (Assay 2); assay type: biochemical; settings: 0.5 μM ATP, histon IIIS substrate; read-out: CDK2/CycE (Assay 2) Concentration for 50% inhibition of enzyme activity, IC50
T1 construct: purchased ProQinase GmbH, Freiburg; host or cells: baculovirus-infected insect cells (Sf9)
Description: 10.2 Assay 2: CDK2/CycE Kinase Assay
Recombinant CDK2 and CycE-GST fusion proteins, purified from baculovirus-infected insect cells (Sf9), were purchased from ProQinase GmbH, Freiburg. Histon IIIS, used as kinase substrate, was purchased from the company Sigma. CDK2/CycE (50 ng/measuring point) was incubated for 10 min at 22° C. in the presence of various concentrations of test substances (0 μM, and within the range 0.01-100 μM) in assay buffer [50 mM Tris/HCl pH8.0, 10 mM MgCl2, 0.1 mM Na ortho-vanadate, 1.0 mM dithiothreitol, 0.5 μM adenosine triphosphate (ATP), 10 μg/measuring point histon IIIS, 0.2 μCi/measuring point ^33P-gamma ATP, 0.05% NP40, 1.25% dimethylsulfoxide]. The reaction was stopped by adding EDTA solution (250 mM, pH8.0, 15 μl/measuring point).
From each reaction mixture, 15 μl was applied to P30 filter strips (from Wallac), and unincorporated ^33P-ATP was removed by washing the filter strips three times, for 10 min each time, in 0.5% phosphoric acid. After drying the filter strips for 1 hour at 70° C., the filter strips were covered with scintillator strips (MeltiLex™ A, from Wallac) and stoved for 1 hour at 90° C. The amount of incorporated ^33P (substrate phosphorylation) was determined by scintillation measurement in a gamma-radiation measuring instrument (Wallac). The measured data were standardized to 0% inhibition (enzyme reaction without inhibitor) and 100% inhibition (all assay components except enzyme). The IC50 values were determined by means of a 4-parameter fit using the company's own software.

[1] = tested on: HeLa-MaTu cervical carcinoma cells; test: Proliferation assay (Assay 4), crystal violet staining; assay type: cell-based; settings: Homo sapiens, 96 h, 4 days incubation; read-out: HeLa-MaTu (Assay 4) Concentration for 50% inhibition of cellular proliferation, IC50
Description: 10.4 Assay 4: Proliferation Assay
Cultivated human HeLa-MaTu cervical carcinoma cells (obtained from EPO-GmbH, Berlin) were plated at a density of 3000 cells/measuring point in a 96-well multititer is plate in 200 μl of growth medium (DMEM/HAMS F12, 2 mM L-glutamine, 10% fetal calf serum). After 24 hours the cells of one plate (zero-point plate) were stained with crystal violet (see below), whereas the medium of the other plates was replaced with fresh culture medium (200 μl), to which the test substances had been added at various concentrations (0 μM, and in the range 0.01-30 μM; the final concentration of the solvent dimethylsulfoxide was 0.5%). The cells were incubated for 4 days in the presence of the test substances. Cellular proliferation was determined by staining the cells with crystal violet: the cells were fixed by adding 20 μl/measuring point of an 11% glutaraldehyde solution for 15 min at room temperature. After washing the fixed cells with water three times, the plates were dried at room temperature. The cells were stained by adding 100 μl/measuring point of a 0.1% crystal violet solution (pH adjusted to pH3 by adding acetic acid). After washing the stained cells with water three times, the plates were dried at room temperature. The dye was dissolved by adding 100 μl/measuring point of a 10% acetic acid solution. The extinction was determined photometrically at a wavelength of 595 nm. The percentage change in cell growth was calculated by standardization of the measured values to the extinction values of the zero-point plate (=0%) and the extinction of the untreated (0 μM) cells (=100%). The measured data were standardized to 0% inhibition (cell proliferation without inhibitor) and 100% inhibition (zero-point plate). The IC50 values were determined by means of a 4-parameter fit using the company's own software.

[2] = tested on: HeLa-MaTu human cervical carcinoma xenograft; test: HeLa-MaTu cervical tumor xenograft model on NMRI nude mice; assay type: in vivo; settings: oral; for tolerability of the cyclic treatment regimen: 10 mg/kg; for response vs control in vivo at 10 mg/kg: Mus musculus, read-out: treatment/control ratio T/C (tumor weight)
Description: HeLa-MaTu (EPO-GmbH, Berlin) human cervical carcinoma cells, which were grown in cell culture, were implanted subcutaneously in the flank of female NMRI nude mice. […] The study was terminated as soon as the tumors in one of the groups reached a size of approx. 150 mm^2.
(§1) The growth-inhibiting effect of the compounds was tested in the HeLa-MaTu cervical tumor model as xenograft on NMRI nude mice. […] Treatment of the established tumors was begun on day 4 after inoculation of the tumors.
as §1, §1
(§2) The study was designed for determining the initial response of a human cervical carcinoma xenograft model to treatments with the 5-Br comparative substance V12. The growth-inhibiting effect of the compounds was tested in the HeLa-MaTu cervical tumor model as xenograft on NMRI nude mice. V12 was dissolved completely in the solubilizer 40% polyethylene glycol 400 (PEG 400)/60% water to a final concentration of 0.7 mg/ml (group 2), 0.85 mg/ml (group 3), or 1.0 mg/ml (group 4). Treatment of the established tumors was begun on day 4 after inoculation of the tumors.
HeLa-MaTu (EPO-GmbH, Berlin) human cervical carcinoma cells, which were grown in cell culture, were implanted subcutaneously in the flank of female NMRI nude mice. […] The study was terminated as soon as the tumors in one of the groups reached a size of approx. 160 mm^2.
(§3) The growth-inhibiting effect of the compounds was tested in the HeLa-MaTu cervical tumor model as xenograft on NMRI nude mice. […] Treatment of the established tumors was begun on day 5 after inoculation of the tumors.
as §3, §3
The following test groups were used: • Group 1: Control, treatment with solubilizer (40% PEG 400/60% water) • Group 2: Compound according to WO 2005/037800 prepared according to preparation V14 disclosed above • (6 mg/kg, oral, 2x daily on day 5, 6, 12, 13, 19, 20) • Group 3: Compound according to WO 2005/037800 prepared according to preparation V14 disclosed above • (8 mg/kg, oral, 2× daily on day 5, 6, 12, 13, 19, 20) • Group 4: Compound according to WO 2005/037800 prepared according to preparation V14 disclosed above • (10 mg/kg, oral, 2× daily on day 5, 6, 12, 13, 19, 20)
as §2, with “substance V14.” for “substance V12.”, “mice. V14” for “mice. V12”, “of 0.6” for “of 0.7”, “2), 0.8” for “2), 0.85”, “day 5” for “day 4”

## CCS(=N)(=O)c1ccc(Nc2ncc(Br)c(N[C@H](C)[C@@H](C)O)n2)cc1 (some centres unmarked) [Example V12]
CDK2/CycE
  IC50: 3 nM
[1]
  IC50: 13 nM
[2]; 2x daily on day 4, 5, 11, 12, 17, 18, 23, 24
  tolerability of the cyclic treatment regimen: well-tolerated
[2]; 7, 8.5, 10 mg/kg, 2x daily on day 4, 5, 11, 12, 17, 18, 23, 24
  effect on tumor growth (in words): dose-dependent weak inhibition of tumor growth
[2]; 672 h, 10 mg/kg (group 4), 2x daily on day 4, 5, 11, 12, 17, 18, 23, 24, day 28
  response vs control in vivo at 10 mg/kg: 51%

## C[C@@H](O)[C@@H](C)Oc1nc(Nc2ccc(S(=N)(=O)C3CC3)cc2)ncc1Br (single isomer, unassigned) [Example V14]
CDK2/CycE
  IC50: 7 nM
[1]
  IC50: 10 nM
[2]; 10 mg/kg (group 4), 2x daily on day 5, 6, 12, 13, 19, 20, day 20
  reduction of tumor weight at the end of the study to % of the control group: 44%
[2]; 2x daily on day 5, 6, 12, 13, 19, 20
  tolerability of the cyclic treatment regimen: well-tolerated
[2]; 6, 8, 10 mg/kg, 2x daily on day 5, 6, 12, 13, 19, 20
  effect on tumor growth (in words): dose-dependent inhibition of tumor growth
[2]; 480 h, 10 mg/kg (group 4), 2x daily on day 5, 6, 12, 13, 19, 20, day 20
  response vs control in vivo at 10 mg/kg: 44%
